{"source": "patent US7186803B2", "about": "“Human vanilloid receptor VR3 protein” (Ortho-McNeil Pharmaceutical, Inc., priority 2000, dated 2007)", "key": {"[1]": {"molecular_target": "T1, human VR3 A+B− (Homo sapiens, UniProt Q9HBA0, F526I)", "T1 construct": "expressed in transfected cells; host or cells: Xenopus laevis oocytes injected with in vitro transcribed cRNA", "T1 sequence (Q9HBA0 whole entry F526I)": "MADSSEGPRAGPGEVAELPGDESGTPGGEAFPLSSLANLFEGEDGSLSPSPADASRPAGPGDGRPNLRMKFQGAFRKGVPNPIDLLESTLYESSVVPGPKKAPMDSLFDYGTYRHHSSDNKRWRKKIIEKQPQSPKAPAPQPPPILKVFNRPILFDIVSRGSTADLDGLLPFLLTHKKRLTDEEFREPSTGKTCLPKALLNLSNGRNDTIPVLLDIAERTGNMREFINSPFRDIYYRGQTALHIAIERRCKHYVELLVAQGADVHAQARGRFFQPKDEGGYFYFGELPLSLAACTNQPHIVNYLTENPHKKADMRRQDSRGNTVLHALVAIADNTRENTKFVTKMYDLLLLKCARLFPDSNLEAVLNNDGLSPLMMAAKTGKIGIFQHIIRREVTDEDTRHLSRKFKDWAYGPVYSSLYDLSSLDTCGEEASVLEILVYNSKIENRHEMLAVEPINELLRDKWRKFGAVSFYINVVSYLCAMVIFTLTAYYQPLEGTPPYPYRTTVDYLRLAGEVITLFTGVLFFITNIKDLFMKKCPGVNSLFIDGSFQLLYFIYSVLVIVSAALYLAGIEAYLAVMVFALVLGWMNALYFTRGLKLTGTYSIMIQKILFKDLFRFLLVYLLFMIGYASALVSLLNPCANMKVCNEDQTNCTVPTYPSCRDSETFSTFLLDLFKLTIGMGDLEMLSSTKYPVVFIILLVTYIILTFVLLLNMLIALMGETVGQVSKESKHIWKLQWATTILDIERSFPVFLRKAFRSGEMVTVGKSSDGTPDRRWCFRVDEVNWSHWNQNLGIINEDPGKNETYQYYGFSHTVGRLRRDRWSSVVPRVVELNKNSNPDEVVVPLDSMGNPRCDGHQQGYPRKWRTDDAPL", "assay": "Two-electrode voltage clamp of Xenopus oocytes injected with VR3 A+B− cRNA, challenged with ligands", "type": "cell-based", "parameters": "key: NE: no effect", "method": "(§1) Xenopus laevis oocytes were prepared and injected using standard methods previously described and known in the art (Fraser et al., 1993). Ovarian lobes from adult female Xenopus laevis (Nasco, Fort Atkinson, Wis.) were teased apart, rinsed several times in nominally Ca-free saline containing: 82.5 mM NaCl, 2.5 mM KCl, 1 mM MgCl2, 5 mM HEPES, adjusted to pH 7.0 with NaOH (OR-2), and gently shaken in OR-2 containing 0.2% collagenase Type 1 (ICN Biomedicals, Aurora, Ohio) for 2–5 hours. When approximately 50% of the follicular layers were removed, Stage V and VI oocytes were selected and rinsed in media consisting of 75% OR-2 and 25% ND-96. The ND-96 contained: 100 mM NaCl, 2 mM KCl, 1 mM MgCl2, 1.8 mM CaCl2, 5 mM HEPES, 2.5 mM Na pyruvate, gentamicin (50 ug/ml), adjusted to pH 7.0 with NaOH. […] For in vitro transcription, pGEM HE (Liman et al., 1992) containing human VR3 was linearized with NheI and transcribed with T7 RNA polymerase (Promega) in the presence of the cap analog m7G(5′)ppp(5′)G. The synthesized cRNA was precipitated with ammonium acetate and isopropanol, and resuspended in 50 μl nuclease-free water. cRNA was quantified using formaldehyde gels (1% agarose, 1×MOPS , 3% formaldehyde) against 1,2 and 5 μl RNA markers (Gibco BRL, 0.24–9.5 Kb).\n(§2) Oocytes were injected with 50 nl of the human VR3 receptor RNA (0.3–5 ng) with or without co-injection of VR1 (2–3 ng). Control oocytes were injected with 50 nl of water. Oocytes were incubated for 1–13 days in ND-96 before analysis for expression of the human VR3. Incubations and collagenase digestion were carried out at room temperature. Injected oocytes were maintained in 48 well cell culture clusters (Costar; Cambridge, Mass.) at 18° C. Whole cell agonist-induced currents were measured 1–14 days after injection with a conventional two-electrode voltage clamp (GeneClamp500, Axon Instruments, Foster City, Calif.) using standard methods previously described and known in the art (Dascal, 1987). The microelectrodes were filled with 3 M KCl, which had resistances of 1 and 2 MΩ. Cells were continuously perfused with ND96 at ˜10 ml/min at room temperature unless indicated. Membrane voltage was clamped at −70 mV unless indicated.\n(§3) Oocytes were challenged with a variety of ligands, low pH, and depolarizing as well as hyperpolarizing voltage steps but there were no detectable differences in membrane conductance between human VR3-expressing oocytes and control oocytes [see Table 1]. However, human VR3 injected oocytes had properties that were different from controls in 4 respects. First, injection of VR3 A+B− cRNA caused oocytes to die. […] Second, all three isoforms of VR3 enhanced the heat-induced response (FIG. 10). Third, A+B− co-injection with human VR1 produced a ruthenium red sensitive perfusion-induced current (Iperfusion) (FIG. 11)."}, "[2]": {"molecular_target": "T2, human VR3 A−B− (Homo sapiens, UniProt Q9HBA0, DEL384-443/F526I)", "T2 construct": "expressed in transfected cells; host or cells: Xenopus laevis oocytes injected with in vitro transcribed cRNA", "T2 sequence (Q9HBA0 with tags, fused parts or gaps DEL384-443/F526I)": "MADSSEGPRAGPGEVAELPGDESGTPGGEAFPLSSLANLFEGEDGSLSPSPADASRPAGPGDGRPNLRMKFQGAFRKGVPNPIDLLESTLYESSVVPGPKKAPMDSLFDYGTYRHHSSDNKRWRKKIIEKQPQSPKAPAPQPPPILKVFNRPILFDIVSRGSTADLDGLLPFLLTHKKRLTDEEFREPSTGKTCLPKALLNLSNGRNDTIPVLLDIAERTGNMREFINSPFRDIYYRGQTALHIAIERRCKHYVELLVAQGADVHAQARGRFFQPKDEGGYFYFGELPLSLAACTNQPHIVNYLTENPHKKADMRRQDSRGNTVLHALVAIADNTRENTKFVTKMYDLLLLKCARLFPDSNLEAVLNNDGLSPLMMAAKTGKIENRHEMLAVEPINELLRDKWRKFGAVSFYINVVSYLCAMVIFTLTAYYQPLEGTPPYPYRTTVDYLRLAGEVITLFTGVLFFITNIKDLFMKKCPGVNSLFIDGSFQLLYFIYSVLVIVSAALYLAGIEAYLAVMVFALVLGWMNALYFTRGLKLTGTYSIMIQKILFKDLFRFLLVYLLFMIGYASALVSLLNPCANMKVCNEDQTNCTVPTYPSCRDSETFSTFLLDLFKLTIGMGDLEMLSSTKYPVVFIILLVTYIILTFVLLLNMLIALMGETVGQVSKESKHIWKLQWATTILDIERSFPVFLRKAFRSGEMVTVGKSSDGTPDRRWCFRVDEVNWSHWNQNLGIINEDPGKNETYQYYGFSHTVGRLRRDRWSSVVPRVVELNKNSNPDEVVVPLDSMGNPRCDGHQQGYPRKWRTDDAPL", "assay": "Two-electrode voltage clamp of Xenopus oocytes injected with VR3 A−B− cRNA, challenged with ligands", "type": "cell-based", "conditions": "VR3 A−B− 1.5 ng injected per oocyte", "method": "When approximately 50% of the follicular layers were removed, Stage V and VI oocytes were selected and rinsed in media consisting of 75% OR-2 and 25% ND-96. The ND-96 contained: 100 mM NaCl, 2 mM KCl, 1 mM MgCl2, 1.8 mM CaCl2, 5 mM HEPES, 2.5 mM Na pyruvate, gentamicin (50 ug/ml), adjusted to pH 7.0 with NaOH.\nas §2, with “Whole cell agonist-induced currents were measured 1–14 days after injection with a conventional two-electrode voltage clamp (GeneClamp500, Axon Instruments, Foster City, Calif.) using standard methods previously described and known in the art (Dascal, 1987).” left out"}, "[3]": {"molecular_target": "T3, VR2 (Rattus norvegicus, UniProt Q9WUD2)", "T3 construct": "host or cells: oocytes and HEK cells (as reported)", "T3 sequence (Q9WUD2 1-761)": "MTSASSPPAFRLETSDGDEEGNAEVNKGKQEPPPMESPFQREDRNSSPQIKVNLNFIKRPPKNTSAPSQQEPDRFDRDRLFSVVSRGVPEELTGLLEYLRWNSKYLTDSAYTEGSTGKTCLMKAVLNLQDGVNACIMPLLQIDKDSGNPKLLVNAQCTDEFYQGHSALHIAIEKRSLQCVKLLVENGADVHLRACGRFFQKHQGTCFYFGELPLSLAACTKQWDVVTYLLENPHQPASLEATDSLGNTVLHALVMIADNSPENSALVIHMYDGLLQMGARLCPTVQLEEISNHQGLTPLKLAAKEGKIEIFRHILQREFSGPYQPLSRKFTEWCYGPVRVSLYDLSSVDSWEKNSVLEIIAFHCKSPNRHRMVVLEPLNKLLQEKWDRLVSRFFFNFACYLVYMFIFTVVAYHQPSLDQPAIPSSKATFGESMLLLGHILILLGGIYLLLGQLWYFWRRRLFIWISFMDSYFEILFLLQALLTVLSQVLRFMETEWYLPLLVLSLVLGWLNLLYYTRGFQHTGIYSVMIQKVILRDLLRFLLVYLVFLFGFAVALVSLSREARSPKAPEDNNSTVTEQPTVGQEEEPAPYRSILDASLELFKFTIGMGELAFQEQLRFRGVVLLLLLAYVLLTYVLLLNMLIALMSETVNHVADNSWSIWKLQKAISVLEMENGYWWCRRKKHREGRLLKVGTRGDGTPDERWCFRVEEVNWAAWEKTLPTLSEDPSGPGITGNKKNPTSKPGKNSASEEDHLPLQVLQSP", "conditions": "noxious temperatures (>53 deg C.), oocytes and HEK cells, cited from earlier work"}, "[4]": {"molecular_target": "T4, human VR3 A+B+ (Homo sapiens, UniProt Q9HBA0)", "T4 construct": "expressed in transfected cells; host or cells: Xenopus laevis oocytes injected with in vitro transcribed cRNA", "T4 sequence (Q9HBA0 with tags, fused parts or gaps)": "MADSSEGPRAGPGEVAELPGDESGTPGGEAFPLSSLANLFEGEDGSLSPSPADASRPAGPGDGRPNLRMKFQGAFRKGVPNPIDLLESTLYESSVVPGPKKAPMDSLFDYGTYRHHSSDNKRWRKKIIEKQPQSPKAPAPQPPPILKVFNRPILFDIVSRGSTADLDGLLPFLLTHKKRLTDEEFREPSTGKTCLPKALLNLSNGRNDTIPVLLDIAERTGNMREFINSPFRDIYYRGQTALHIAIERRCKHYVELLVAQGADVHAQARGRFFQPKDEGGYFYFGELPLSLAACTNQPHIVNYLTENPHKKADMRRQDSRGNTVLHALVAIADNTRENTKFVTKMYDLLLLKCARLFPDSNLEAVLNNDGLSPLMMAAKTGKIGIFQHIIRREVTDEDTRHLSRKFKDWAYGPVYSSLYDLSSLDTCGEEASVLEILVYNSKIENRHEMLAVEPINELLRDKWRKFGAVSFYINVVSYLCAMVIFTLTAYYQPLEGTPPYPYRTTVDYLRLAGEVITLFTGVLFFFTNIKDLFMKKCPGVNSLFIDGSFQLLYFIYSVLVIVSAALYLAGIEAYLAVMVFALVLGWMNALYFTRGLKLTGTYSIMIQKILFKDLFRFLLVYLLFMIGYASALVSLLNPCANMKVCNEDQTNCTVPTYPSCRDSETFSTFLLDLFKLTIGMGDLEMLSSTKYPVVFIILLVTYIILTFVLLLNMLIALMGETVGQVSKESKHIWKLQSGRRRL", "assay": "Two-electrode voltage clamp of Xenopus oocytes injected with VR3 A+B+ cRNA, challenged with ligands", "type": "cell-based", "parameters": "key: NE: no effect", "conditions": "VR3 A+B+ 5 ng injected per oocyte", "method": "as §1, §2, §3"}, "[5]": {"molecular_target": "T5, human VR1 together with human VR3 A+B− (Homo sapiens, UniProt Q8NER1)", "T5 construct": "expressed in transfected cells; host or cells: Xenopus laevis oocytes co-injected with VR1 and VR3 A+B− cRNA (2.9 ng each)", "T5 sequence (Q8NER1 whole entry)": "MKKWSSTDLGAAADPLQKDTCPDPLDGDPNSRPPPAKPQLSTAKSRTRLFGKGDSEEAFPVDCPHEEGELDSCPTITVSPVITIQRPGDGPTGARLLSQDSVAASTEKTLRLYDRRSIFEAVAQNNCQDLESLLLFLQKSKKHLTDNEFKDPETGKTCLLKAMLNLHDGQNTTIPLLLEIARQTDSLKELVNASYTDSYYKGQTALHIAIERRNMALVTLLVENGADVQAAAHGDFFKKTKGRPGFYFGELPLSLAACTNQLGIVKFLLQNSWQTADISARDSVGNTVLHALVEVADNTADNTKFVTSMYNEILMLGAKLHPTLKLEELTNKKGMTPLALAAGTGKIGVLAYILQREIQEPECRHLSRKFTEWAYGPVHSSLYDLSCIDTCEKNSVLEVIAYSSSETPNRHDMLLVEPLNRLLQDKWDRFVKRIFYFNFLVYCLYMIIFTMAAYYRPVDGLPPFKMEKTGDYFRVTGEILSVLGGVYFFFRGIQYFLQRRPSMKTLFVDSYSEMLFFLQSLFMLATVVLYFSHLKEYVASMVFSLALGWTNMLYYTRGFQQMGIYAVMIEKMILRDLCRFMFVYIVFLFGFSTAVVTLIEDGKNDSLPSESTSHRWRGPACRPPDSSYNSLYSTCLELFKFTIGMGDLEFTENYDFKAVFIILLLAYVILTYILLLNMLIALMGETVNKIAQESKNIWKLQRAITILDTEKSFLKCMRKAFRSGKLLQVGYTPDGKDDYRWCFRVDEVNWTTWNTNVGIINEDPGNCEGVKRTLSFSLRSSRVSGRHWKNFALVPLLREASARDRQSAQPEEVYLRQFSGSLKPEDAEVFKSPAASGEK", "assay": "Capsaicin induced currents in oocytes expressing human VR1 with human VR3 A+B−", "type": "cell-based", "conditions": "1 uM capsaicin; VR1 and VR3 A+B− cRNA at equal ratios (2.9 ng each); holding voltage +50 mV", "method": "as §2, with “Whole cell agonist-induced currents were measured 1–14 days after injection with a conventional two-electrode voltage clamp (GeneClamp500, Axon Instruments, Foster City, Calif.) using standard methods previously described and known in the art (Dascal, 1987).” left out"}, "[6]": {"molecular_target": "capsaicin binding site (Rattus norvegicus, UniProt O35433)", "sequence (O35433 whole entry)": "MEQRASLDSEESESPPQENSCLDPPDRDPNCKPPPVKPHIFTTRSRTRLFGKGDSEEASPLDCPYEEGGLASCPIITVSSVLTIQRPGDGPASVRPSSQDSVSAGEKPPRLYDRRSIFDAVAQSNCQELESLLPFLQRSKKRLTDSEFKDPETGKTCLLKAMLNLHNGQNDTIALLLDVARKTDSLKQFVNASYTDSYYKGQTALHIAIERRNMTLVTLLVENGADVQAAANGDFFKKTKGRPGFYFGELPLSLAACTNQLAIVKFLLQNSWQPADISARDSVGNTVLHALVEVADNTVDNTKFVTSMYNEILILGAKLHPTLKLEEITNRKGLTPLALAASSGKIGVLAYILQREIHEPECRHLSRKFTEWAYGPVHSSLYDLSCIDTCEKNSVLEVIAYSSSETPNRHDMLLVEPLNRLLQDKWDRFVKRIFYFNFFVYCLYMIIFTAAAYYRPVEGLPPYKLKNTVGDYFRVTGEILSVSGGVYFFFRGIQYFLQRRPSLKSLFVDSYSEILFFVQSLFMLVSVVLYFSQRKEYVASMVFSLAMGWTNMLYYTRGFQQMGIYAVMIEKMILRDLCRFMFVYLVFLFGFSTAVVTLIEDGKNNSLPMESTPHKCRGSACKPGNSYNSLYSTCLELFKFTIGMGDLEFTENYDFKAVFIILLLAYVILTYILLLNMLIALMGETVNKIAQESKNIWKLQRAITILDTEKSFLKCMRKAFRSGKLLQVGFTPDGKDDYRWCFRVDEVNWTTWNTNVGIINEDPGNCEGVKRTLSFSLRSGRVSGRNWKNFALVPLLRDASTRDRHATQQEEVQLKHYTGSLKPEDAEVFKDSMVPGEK", "conditions": "cited from earlier work"}, "[7]": {"conditions": "1 uM, VR3 A+B− 3.25–4 ng injected per oocyte (also 0.4 ng)"}, "[8]": {"conditions": "10 uM, VR3 A+B− 3.25–4 ng injected per oocyte (also 0.4 ng)"}, "[9]": {"conditions": "100 uM, VR3 A+B− 3.25–4 ng injected per oocyte"}}, "note": "Entries after “also recorded” stand apart in the source; their conditions may differ.", "data": [{"compound": "CCCCC/C=C\\C/C=C\\C/C=C\\C/C=C\\CCCC(=O)NCCO", "note": "[Anandamide]", "values": [{"measurement": "Effect of stimulus on membrane conductance vs control oocytes", "setting": "[1]; 1.15 uM, VR3 A+B− 0.4 ng injected", "value": "NE: n = 3 (0.4 ng"}, {"measurement": "Effect of stimulus on membrane conductance vs control oocytes", "setting": "[2]; 1.15 uM", "value": "NE: n = 1"}]}, {"compound": "CCCCC/C=C\\C/C=C\\C/C=C\\C/C=C\\CCCC(=O)O", "note": "[Arachadonic acid]", "values": [{"measurement": "Effect of stimulus on membrane conductance vs control oocytes", "setting": "[2]; 10 uM", "value": "NE: n = 3"}]}, {"compound": "Oc1cc2c(cc1O)CN(C(=S)NCCc1ccc(Cl)cc1)CCC2", "note": "[CPZ, capsazepine]", "values": [{"measurement": "Sensitivity of the VR2 heat response to CPZ", "setting": "[3]", "value": "not sensitive"}]}, {"compound": "COc1cc(CNC(=O)CCCCC=CC(C)C)ccc1O", "note": "[Capsaicin, 8-methyl-N-vanillyl-6-nonenamide]", "values": [{"measurement": "Effect of stimulus on membrane conductance vs control oocytes", "setting": "[4]; 1 uM", "value": "NE: n = 3"}, {"measurement": "Response to capsaicin when VR1 is co-expressed with VR3 A+B−, compared with VR1 alone", "setting": "[5]", "value": "altered the responsiveness; also recorded: diminished"}, {"measurement": "Effect of stimulus on membrane conductance vs control oocytes", "setting": "[1]; [7]", "value": "NE: n = 3 (n = 3 0.4 ng)"}, {"measurement": "Effect of stimulus on membrane conductance vs control oocytes", "setting": "[2]; 1 uM", "value": "NE: n = 3"}]}, {"compound": "C=CCc1ccc(O)c(OC)c1", "note": "[Eugenol]", "values": [{"measurement": "Effect of stimulus on membrane conductance vs control oocytes", "setting": "[4]; 10 uM", "value": "NE: n = 3"}, {"measurement": "Effect of stimulus on membrane conductance vs control oocytes", "setting": "[1]; [8]", "value": "NE: n = 3 (n = 3 0.4 ng)"}, {"measurement": "Effect of stimulus on membrane conductance vs control oocytes", "setting": "[2]; 10 uM", "value": "NE: n = 3"}]}, {"compound": "CCCCC[C@H](O)CC(=O)CCc1ccc(O)c(OC)c1", "note": "[Gingerol]", "values": [{"measurement": "Effect of stimulus on membrane conductance vs control oocytes", "setting": "[4]; 10 uM", "value": "NE: n = 3"}, {"measurement": "Effect of stimulus on membrane conductance vs control oocytes", "setting": "[1]; [8]", "value": "NE: n = 3 (n = 1 0.4 ng)"}, {"measurement": "Effect of stimulus on membrane conductance vs control oocytes", "setting": "[2]; 10 uM", "value": "NE: n = 3"}]}, {"compound": "COc1ccccc1O", "note": "[Guiaicol]", "values": [{"measurement": "Effect of stimulus on membrane conductance vs control oocytes", "setting": "[4]; 10 uM", "value": "NE: n = 3"}, {"measurement": "Effect of stimulus on membrane conductance vs control oocytes", "setting": "[1]; [8]", "value": "NE: n = 3 (n = 1 0.4 ng)"}, {"measurement": "Effect of stimulus on membrane conductance vs control oocytes", "setting": "[2]; 10 uM", "value": "NE: n = 3"}]}, {"compound": "CCCCCCCC/C=C\\CCCCCCCC(=O)NCc1ccc(O)c(OC)c1", "note": "[Olvanil]", "values": [{"measurement": "Effect of stimulus on membrane conductance vs control oocytes", "setting": "[4]; 10 uM", "value": "NE: n = 3"}, {"measurement": "Effect of stimulus on membrane conductance vs control oocytes", "setting": "[1]; [8]", "value": "NE: n = 3 (n = 1 0.4 ng)"}, {"measurement": "Effect of stimulus on membrane conductance vs control oocytes", "setting": "[2]; 10 uM", "value": "NE: n = 3"}]}, {"compound": "C=C(C)[C@]12C[C@@H](C)[C@@]34O[C@](Cc5ccccc5)(O[C@@H]1[C@@H]3C=C(COC(=O)Cc1ccc(O)c(OC)c1)C[C@]1(O)C(=O)C(C)=C[C@@H]41)O2", "note": "[Resiniferatoxin, resiniferatoxin]", "values": [{"measurement": "Binding affinity at the capsaicin binding site", "setting": "[6]", "value": "nanomolar affinity"}, {"measurement": "Effect of stimulus on membrane conductance vs control oocytes", "setting": "[4]; 1 uM", "value": "NE: n = 3"}, {"measurement": "Effect of stimulus on membrane conductance vs control oocytes", "setting": "[1]; [7]", "value": "NE: n = 3 (n = 1 0.4 ng)"}, {"measurement": "Effect of stimulus on membrane conductance vs control oocytes", "setting": "[2]; 1 uM", "value": "NE: n = 3"}]}, {"compound": "N.N.N.N.N.N.N.N.N.N.N.N.N.N.[Cl-].[Cl-].[Cl-].[Cl-].[Cl-].[Cl-].[O-2].[O-2].[Ru+3].[Ru+3].[Ru+4]", "note": "[ruthenium red]", "values": [{"measurement": "Block of the VR2 heat response", "setting": "[3]; 10 μM ruthenium red", "value": "nearly completely blocked"}]}, {"compound": "NCCc1ccccc1", "note": "[β-phenylethylamine]", "values": [{"measurement": "Effect of stimulus on membrane conductance vs control oocytes", "setting": "[1]; [9]", "value": "NE: n = 2"}]}, {"compound": "O=C(O)CCCO", "note": "[γ-hydroxybutyrate]", "values": [{"measurement": "Effect of stimulus on membrane conductance vs control oocytes", "setting": "[1]; [9]", "value": "NE: n = 2"}]}]}
